The values that follow come from patent US20090227601A1, “Bradykinin 1 Receptor Antagonists” (Amgen Inc., priority 2005, published 2009).

Values joined by “and” are separate entries in the source; they are usually repeats but may differ in a detail not shown here. Equal entries are not always repeated. Structures can show the parent of a compound that is named as a salt.

This assay addresses T1, hB2 receptor (Homo sapiens, UniProt P30411).
T1 construct: host or cells: CHO-K1
T1 sequence (P30411 1-391): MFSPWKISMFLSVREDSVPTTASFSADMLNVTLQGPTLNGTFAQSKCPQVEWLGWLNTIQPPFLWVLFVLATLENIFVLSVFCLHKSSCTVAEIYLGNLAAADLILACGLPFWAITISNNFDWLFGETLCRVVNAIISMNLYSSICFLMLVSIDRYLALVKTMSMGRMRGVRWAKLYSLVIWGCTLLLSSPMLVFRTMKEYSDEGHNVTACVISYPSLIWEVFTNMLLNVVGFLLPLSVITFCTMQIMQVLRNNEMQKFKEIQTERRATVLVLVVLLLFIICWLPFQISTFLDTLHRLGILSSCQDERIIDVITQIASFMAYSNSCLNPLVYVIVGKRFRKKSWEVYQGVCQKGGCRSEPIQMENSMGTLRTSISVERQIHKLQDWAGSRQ
Description: In vitro Assay of hB2 Receptor Function using Calcium Flux. The assay is classed as cell-based. The note with it: recombinant CHO cells, antagonist IC50 against agonist at EC80. Here is the method:
In vitro Assay of hB2 Receptor Function using Calcium Flux The intracellular calcium flux induced by hB2 receptor activation was analyzed using an hB2 recombinant cell line (CHO-K1) purchased from PerkinElmer (Catalog Number: RBHB2C000EA) on a fluorometric imaging plate reader (FLIPR). […] Culture medium was changed every other day. 24 h prior to the FLIPR assay, the hB2/CHO cells were washed once with PBS (Invitrogen) and 10 mL of Versene (1:5000, Invitrogen, Cat# 15040-066) was added to each flask. After 5 min incubation at 37° C., Versene was removed and cells were detached from the flask and resuspended in culture medium. Cells were counted and 25,000 cells/well were plated in 96-well black-sided clear bottom assay plates (Costar #3904). Cells were incubated in a 37° C. CO2 incubator overnight. The media was aspirated from the cells and replaced with 65 μL of dye-loading buffer. The loading buffer was prepared by diluting a stock solution of 0.5 mM Fluo-4 AM (Molecular Probes, dissolved in DMSO containing 10% [w/v] pluronic acid) to a concentration of 1 μM in Clear Dulbecco's Modified Eagle Medium (DMEM) containing 0.1% BSA, 20 mM HEPES, and 2.5 mM probenecid. The cells were dye-loaded for 1 h at RT. The excess dye was removed by washing the cells 2× with assay buffer. The assay buffer consists of Hank's Balanced Salt Solution (HBSS) containing 20 mM HEPES, 0.1% BSA, and 2.5 mM probenecid. After the wash cycles, a volume of 100 μL was left in each well, and the plate was ready to be assayed in the FLIPR System. […] The cell plate and the compound plates were loaded onto the FLIPR and during the assay, fluorescence readings are taken simultaneously from all 96 wells of the cell plate. Ten 1-second readings were taken to establish a stable baseline for each well, then 25 μL from the B1 antagonist plate was rapidly (50 μL/sec.) added. The fluorescence signal was measured in 1-second (1 min) followed by 6-second (2 min) intervals for a total of 3 min to determine if there is any agonist activity with the compounds.
For orientation: A change in cytosolic calcium serves as a functional read-out for many receptors and channels.
As for “1,1-dimethylethyl (3R)-3-((((2R)-1-((4-methylphenyl)sulfonyl)-3-oxo-1,2,3,4-tetrahydro-2-pyrazinyl)acetyl)amino)-1-piperidinecarboxylate; and 1,1-dimethylethyl (3S)-3-((((2R)-1-((4-methylphenyl)sulfonyl)-3-oxo-1,2,3,4-tetrahydro-2-pyrazinyl)acetyl)amino)-1-piperidinecarboxylate [T-1-8]”, the IC50 is 0.17 µM.
In the case of “2-((2R)-1-((2,3-dichlorophenyl)sulfonyl)-3-oxo-1,2,3,4-tetrahydro-2-pyrazinyl)-N-((4S)-3,3-dimethyl-4-piperidinyl)acetamide; and 2-((2R)-1-((2,3-dichlorophenyl)sulfonyl)-3-oxo-1,2,3,4-tetrahydro-2-pyrazinyl)-N-((4R)-3,3-dimethyl-4-piperidinyl)acetamide [T-1-47]” it was 0.0008 µM.
On to “2-((2R)-1-((4-chloro-2,5-dimethylphenyl)sulfonyl)-3-oxo-1,2,3,4-tetrahydro-2-pyrazinyl)-N-((4S)-3,3-dimethyl-4-piperidinyl)acetamide; and 2-((2R)-1-((4-chloro-2,5-dimethylphenyl)sulfonyl)-3-oxo-1,2,3,4-tetrahydro-2-pyrazinyl)-N-((4R)-3,3-dimethyl-4-piperidinyl)acetamide [T-1-48]”, for which the IC50 was found to be 0.4 µM.
Consider “2-((2R)-1-((4-methylphenyl)sulfonyl)-3-oxo-1,2,3,4-tetrahydro-2-pyrazinyl)-N-((1R,2R,4R)-1,7,7-trimethylbicyclo[2.2.1]hept-2-yl)acetamide; and 2-((2R)-1-((4-methylphenyl)sulfonyl)-3-oxo-1,2,3,4-tetrahydro-2-pyrazinyl)-N-((1R,2S,4R)-1,7,7-trimethylbicyclo[2.2.1]hept-2-yl)acetamide [T-1-2]”, for which the half-maximal inhibitory concentration (IC50) came to 0.092 µM.
For the compound `Cc1ccc(S(=O)(=O)N2C=CNC(=O)[C@H]2CC(=O)NC2CCN(C(=O)OC(C)(C)C)CC2(C)C)cc1` (mixture of isomers) [T-1-15, 1,1-dimethylethyl (4R)-3,3-dimethyl-4-((((2R)-1-((4-methylphenyl)sulfonyl)-3-oxo-1,2,3,4-tetrahydro-2-pyrazinyl)acetyl)amino)-1-piperidinecarboxylate; and 1,1-dimethylethyl (4S)-3,3-dimethyl-4-((((2R)-1-((4-methylphenyl)sulfonyl)-3-oxo-1,2,3,4-tetrahydro-2-pyrazinyl)acetyl)amino)-1-piperidinecarboxylate], the IC50 is 0.15 µM and 0.43 µM.
Regarding `Cc1ccc(S(=O)(=O)N2C=CNC(=O)[C@H]2CC(=O)NC2CCN(Cc3ccncc3)CC2(C)C)cc1` (mixture of isomers) [T-1-25, N-((4R)-3,3-dimethyl-1-(4-pyridinylmethyl)-4-piperidinyl)-2-((2R)-1-((4-methylphenyl)sulfonyl)-3-oxo-1,2,3,4-tetrahydro-2-pyrazinyl)acetamide; and N-((4S)-3,3-dimethyl-1-(4-pyridinylmethyl)-4-piperidinyl)-2-((2R)-1-((4-methyl-phenyl)sulfonyl)-3-oxo-1,2,3,4-tetrahydro-2-pyrazinyl)acetamide], the IC50 amounted to 0.00121 µM.
Take `Cc1ccc(S(=O)(=O)N2C=CNC(=O)[C@H]2CC(=O)NC2CCC(N3CCC(F)CC3)CC2(C)C)cc1` (mixture of isomers) [T-1-42]: the IC50 stood at 1.98 µM.
With `Cc1ccc(S(=O)(=O)N2C=CNC(=O)[C@H]2CC(=O)NC2CCC(NC3CC3)CC2(C)C)cc1` (mixture of isomers) [T-1-43], the 50% inhibitory concentration (IC50) is 0.014 µM.
Take `Cc1ccc(S(=O)(=O)N2C=CNC(=O)[C@H]2CC(=O)NC2CCC(NCC(C)(C)C)CC2(C)C)cc1` (mixture of isomers) [T-1-44]: the IC50 stood at 2.3 µM.
Turning to `Cc1ccc(S(=O)(=O)N2C=CNC(=O)[C@H]2CC(=O)NC2CCC(N3CCCC3)CC2(C)C)cc1` (mixture of isomers) [T-1-50], the half-maximal inhibitory concentration (IC50) came to 0.0013 µM.
`Cc1ccc(S(=O)(=O)N2C=CNC(=O)[C@H]2CC(=O)N[C@@H]2CCCC[C@H]2C(C)(C)O)cc1` (mixture of isomers) [T-1-65, N-((1RS,2RS)-2-(1-hydroxy-1-methylethyl)cyclohexyl)-2-((2R)-1-((4-methylphenyl)sulfonyl)-3-oxo-1,2,3,4-tetrahydro-2-pyrazinyl)acetamide]: the IC50 was found to be 2.7 µM.
For the compound `Cc1ccc(S(=O)(=O)N2C=CNC(=O)[C@H]2CC(=O)NC2CC(=O)OC(C)(C)C2)cc1` (mixture of isomers) [T-1-67, N-((4RS)-2,2-dimethyl-6-oxotetrahydro-2H-pyran-4-yl)-2-((2R)-1-((4-methylphenyl)sulfonyl)-3-oxo-1,2,3,4-tetrahydro-2-pyrazinyl)acetamide], the IC50 turned out to be 2.2 µM.
For the compound `Cc1ccc(S(=O)(=O)N2C=CNC(=O)[C@H]2CC(=O)NC2CCC3(CC2(C)C)OCCO3)cc1` (mixture of isomers) [T-1-111, N-((8RS)-7,7-dimethyl-1,4-dioxaspiro[4.5]dec-8-yl)-2-((2R)-1-((4-methylphenyl)-sulfonyl)-3-oxo-1,2,3,4-tetrahydro-2-pyrazinyl)acetamide], the concentration for half-maximal inhibition (IC50) was found to be 0.0014 µM.
In the case of `Cc1cc(S(=O)(=O)N2C=CNC(=O)[C@H]2CC(=O)N2CCCC(N(C)C3CC3)CC2)c(C)cc1Cl` (mixture of isomers) [T-3-28, (3R)-4-((4-chloro-2,5-dimethylphenyl)sulfonyl)-3-(2-((4R/S)-4-(cyclopropyl(methyl)amino)-1-azepanyl)-2-oxoethyl)-3,4-dihydro-2(1H)-pyrazinone trifluoroacetic acid salt] it was 0.032 µM; in that of `Cc1cc(S(=O)(=O)N2C=CNC(=O)[C@H]2CC(=O)N2CCC(N3CCCC3)C(C)(C)C2)c(C)cc1Cl` (mixture of isomers) [T-3-30, (3R)-4-((4-chloro-2,5-dimethylphenyl)sulfonyl)-3-(2-((4R/S)-3,3-dimethyl-4-(1-pyrrolidinyl)-1-piperidinyl)-2-oxoethyl)-3,4-dihydro-2(1H)-pyrazinone], 0.061 µM; in that of `Cc1ccc(S(=O)(=O)N2C=CNC(=O)[C@H]2CC(=O)NC2CCN(c3ccccc3)CC2)cc1` [T-1-3, 2-((2R)-1-((4-methylphenyl)sulfonyl)-3-oxo-1,2,3,4-tetrahydro-2-pyrazinyl)-N-(1-phenyl-4-piperidinyl)acetamide], 0.021 µM.
Take `Cc1ccc(S(=O)(=O)N2C=CNC(=O)[C@H]2CC(=O)NC2CCN(c3ncccn3)CC2)cc1` [T-1-7, 2-((2R)-1-((4-methylphenyl)sulfonyl)-3-oxo-1,2,3,4-tetrahydro-2-pyrazinyl)-N-(1-(2-pyrimidinyl)-4-piperidinyl)acetamide]: the IC50 was found to be 0.7 µM.
With `CC(=O)N1CCC(NC(=O)C[C@@H]2C(=O)NC=CN2S(=O)(=O)c2ccc(C)cc2)C(C)(C)C1` (stereo partly drawn) [T-1-18, N-(1-acetyl-3,3-dimethyl-4-piperidinyl)-2-((2R)-1-((4-methylphenyl)sulfonyl)-3-oxo-1,2,3,4-tetrahydro-2-pyrazinyl)acetamide], the IC50 was 0.015 µM.
In the case of `CO[C@H]1CC[C@H](NC(=O)C[C@@H]2C(=O)NC=CN2S(=O)(=O)c2ccc(C)cc2)CC1` [T-1-30, N-(trans-4-(methyloxy)cyclohexyl)-2-((2R)-1-((4-methylphenyl)sulfonyl)-3-oxo-1,2,3,4-tetrahydro-2-pyrazinyl)acetamide], the IC50 turned out to be 0.19 µM.
In the case of `Cc1ccc(S(=O)(=O)N2C=CNC(=O)[C@H]2CC(=O)N[C@H]2CC[C@@H](N)CC2)cc1` [T-1-31, N-(cis-4-aminocyclohexyl)-2-((2R)-1-((4-methylphenyl)sulfonyl)-3-oxo-1,2,3,4-tetrahydro-2-pyrazinyl)acetamide] it was 0.047 µM.
On to `Cc1ccc(S(=O)(=O)N2C=CNC(=O)[C@H]2CC(=O)NC2CC3CCC(C2)N3C)cc1` (stereo partly drawn) [T-1-34, N-((3-endo)-8-methyl-8-azabicyclo[3.2.1]oct-3-yl)-2-((2R)-1-((4-methylphenyl)-sulfonyl)-3-oxo-1,2,3,4-tetrahydro-2-pyrazinyl)acetamide; and N-((3-exo)-8-methyl-8-azabicyclo[3.2.1]oct-3-yl)-2-((2R)-1-((4-methylphenyl)-sulfonyl)-3-oxo-1,2,3,4-tetrahydro-2-pyrazinyl)acetamide], for which the IC50 came to 0.14 µM.

The IC50 is the point on the concentration scale where inhibition reaches its midpoint.
